According to patent US6706716B2, “Compounds specific for the human α1d adrenergic receptor and uses thereof” (Synaptic Pharmaceutical Corporation, priority 1998, dated 2004):

What was measured:
[1] = target: T1, human α1a adrenergic receptor (Homo sapiens, UniProt P35348); assay: Radioligand binding ([3H]prazosin) at cloned human α1a adrenergic receptor; conditions: LM(tk-) cell membranes, read-out: Binding affinities (pKi) α1a (converted)
T1 construct: The entire coding region of α1a (1401 bp); expressed in transfected cells
T1 sequence (P35348 1-466): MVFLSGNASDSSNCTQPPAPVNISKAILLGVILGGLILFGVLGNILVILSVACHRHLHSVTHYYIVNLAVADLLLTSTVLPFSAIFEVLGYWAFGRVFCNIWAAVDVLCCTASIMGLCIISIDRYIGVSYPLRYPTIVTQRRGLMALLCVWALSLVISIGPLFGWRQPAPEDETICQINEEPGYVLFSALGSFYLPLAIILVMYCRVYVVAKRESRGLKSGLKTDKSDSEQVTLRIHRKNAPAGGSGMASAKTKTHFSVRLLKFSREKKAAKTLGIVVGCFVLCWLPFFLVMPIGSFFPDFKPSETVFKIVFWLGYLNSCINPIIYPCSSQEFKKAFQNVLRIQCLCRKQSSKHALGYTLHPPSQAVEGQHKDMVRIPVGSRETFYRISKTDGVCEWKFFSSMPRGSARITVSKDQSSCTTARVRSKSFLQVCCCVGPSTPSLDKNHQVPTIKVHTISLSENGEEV
Method: (§1) First, conditions were determined which allowed measurement of the specific binding of a compound known to bind to the receptor. Then, the binding of the known compound to the receptor in membrane preparations was evaluated in the presence of several different concentrations of the test compound.
(§2) These cell lines were prepared by transfecting the cloned cDNA or cloned genomic DNA or constructs containing both genomic DNA and cDNA encoding the human receptors as described below.
The construct involved ligating three partial overlapping fragments: a 5′0.6 kb HincII genomic clone, a central 1.8 EcoRI hippocampal cDNA clone, and a 3′0.6 Kb PstI genomic clone. The hippocampal cDNA fragment overlaps with the 5′ and 3′ genomic clones so that the HincII and PstI sites at the 5′ and 3′ ends of the cDNA clone, respectively, were utilized for ligation. This full-length clone was cloned into the KpnI site of the expression vector, using the 5′ and 3′ KpnI sites of the fragment, derived from vector (i.e., pBluescript) and 3′-untranslated sequences, respectively. Stable cell lines were selected as described above. Membranes were harvested and assayed for their ability to bind [^3H]prazosin as described below (see Radioligand Binding assays).
(§3) Radioligand Binding Assays for α1 Human Adrenergic Receptors: Transfected cells from culture flasks were scraped into 5 ml of 5 mM Tris-HCl, 5 mM EDTA, pH 7.5, and lysed by sonication. The cell lysates were centrifuged at 1000 rpm for 5 min at 4° C., and the supernatant was centrifuged at 30,000×g for 20 min at 4° C. The pellet was suspended in 50 mM Tris-HCl, 1 mM MgCl2, and 0.1% ascorbic acid at pH 7.5. Binding of the α1, antagonist [^3H]prazosin (0.5 nM, specific activity 76.2 Ci/mmol) to membrane preparations of LM(tk-) cells was done in a final volume of 0.25 ml and incubated at 37° C. for 1 hour. Nonspecific binding was determined in the presence of 10 μM phentolamine. The reaction was stopped by filtration through GF/B filters using a cell harvester.

[2] = target: T2, human α1b adrenergic receptor (Homo sapiens, UniProt P35368); assay: Radioligand binding ([3H]prazosin) at cloned human α1b adrenergic receptor; conditions: LM(tk-) cell membranes, read-out: Binding affinities (pKi) α1b (converted)
T2 construct: The entire coding region of α1b (1563 bp); expressed in transfected cells
T2 sequence (P35368 1-520): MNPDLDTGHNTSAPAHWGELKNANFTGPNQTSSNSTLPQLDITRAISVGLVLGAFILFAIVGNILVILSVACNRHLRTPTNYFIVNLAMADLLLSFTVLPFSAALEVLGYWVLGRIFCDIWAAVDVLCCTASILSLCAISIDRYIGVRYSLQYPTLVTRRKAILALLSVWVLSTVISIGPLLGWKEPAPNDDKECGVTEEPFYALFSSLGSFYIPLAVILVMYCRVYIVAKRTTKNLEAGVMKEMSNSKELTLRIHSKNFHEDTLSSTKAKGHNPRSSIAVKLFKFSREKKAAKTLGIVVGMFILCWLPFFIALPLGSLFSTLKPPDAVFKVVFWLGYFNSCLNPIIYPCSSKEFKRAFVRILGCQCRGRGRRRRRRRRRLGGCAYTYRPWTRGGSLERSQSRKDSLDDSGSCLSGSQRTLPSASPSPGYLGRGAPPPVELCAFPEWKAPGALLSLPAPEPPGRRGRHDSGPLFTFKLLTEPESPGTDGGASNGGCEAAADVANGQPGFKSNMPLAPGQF
Method: as §1, §2
α1b Human Adrenergic Receptor: The entire coding region of α1b (1563 bp), including 200 base pairs of 5′ untranslated sequence (5′ UT) and 600 bp of 3′ untranslated sequence (3′ UT), was cloned into the EcoRI site of pCEXV-3 eukaryotic expression vector. The construct involved ligating the full-length EcoRI brainstem cDNA fragment from λ ZapII into the expression vector. Stable cell lines were selected as described above. Membranes were harvested and assayed for their ability to bind [^3H]prazosin as described below (see Radioligand Binding assays). The cell line used herein was designated L-α1B and was deposited with the American Type Culture Collection, 12301 Parklawn Drive, Rockville, Md. 20852, U.S.A. under the provisions of the Budapest Treaty for the International Recognition of the Deposit of Microorganisms for the Purposes of Patent Procedure. The cell line L-α1B was accorded ATCC Accession No. CR 11139, on Sep. 29, 1992.
as §3

Row | Structure (SMILES) | Ki [1] | Ki [2]
1 | O=C1CC2(CCCC2)CC(=O)N1CCN1CCN(c2ccc(F)c(F)c2)CC1 [Compound 15, 8-{2-[4-(3,4-Difluorophenyl)piperazin-1-yl]ethyl}-8-azaspiro[4.5]decane-7,9-dione] | 3.98 µM | 1.58 µM
2 | O=C1CC2(CCCC2)CC(=O)N1CCN1CCN(c2cc(F)c(F)cc2F)CC1 [Compound 7, 8-{2-[4-(2,4,5-Trifluorophenyl)piperazin-1-yl]ethyl}-8-azaspiro[4.5]decane-7,9-dione] | 3.98 µM | 0.398 µM
3 | O=C1CC2(CCCC2)CC(=O)N1CCN1CCN(c2c(F)cccc2F)CC1 [Compound 14, 8-{2-[4-(2,6-Difluorophenyl)piperazino]ethyl}-8-azaspiro[4.5]decane-7,9-dione] | 3.16 µM | 0.126 µM
4 | Cc1ccc(Cl)cc1N1CCN(CCN2C(=O)CC3(CCCC3)CC2=O)CC1 [Compound 13, 8-{2-[4-(5-Chloro-2-methylphenyl)piperazino]ethyl}-8-azaspiro [4.5]decane-7,9-dione] | 7.94 µM | 3.16 µM
5 | C[C@H](CN1CCN(c2cc(F)ccc2F)CC1)N1C(=O)CC2(CCCC2)CC1=O [Compound 8, 8-{(1R)-2-[4-(2,5-Difluorophenyl)piperazin-1-yl]-1-methylethyl}-8-azaspiro[4.5]decane-7,9-dione] | 6.31 µM | 0.0631 µM
6 | COc1ccc(F)cc1C1CCN(CCN2C(=O)CC3(CCCC3)CC2=O)CC1 [Compound 12, 8-{2-[4-(5-Fluoro-2-methoxyphenyl)piperidin-1-yl]ethyl}-8-azaspiro[4.5]decane-7,9-dione] | 0.0794 µM | 0.0631 µM
7 | O=C1CC2(CCCC2)CC(=O)N1CCN1CCN(c2cc(F)ccc2F)CC1 [Compound 6, 8-{2-[4-(2,5-Difluorophenyl)piperazin-1-yl]ethyl}-8-azaspiro[4.5]decane-7,9-dione] |  | 0.0501 µM
8 | C[C@@H](CN1CCN(c2cc(F)ccc2F)CC1)N1C(=O)CC2(CCCC2)CC1=O [Compound 10, 8-{(1S)-2-[4-(2,5-Difluorophenyl)piperazin-1-yl]-1-methylethyl}-8-azaspiro[4.5]decane-7,9-dione] | 7.94 µM | 3.98 µM
